Molecular target: PLK1 (Homo sapiens, UniProt P53350)
Assay: PLK1 Inhibition Assay I (radioactive-phosphate incorporation)
Assay type: biochemical
Conditions: Ki(app); PLK1 Inhibition Assay I or II (table does not say which)
Summary of the method: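 Ki(app) values came from non-linear regression of initial rates after background subtraction, with phosphopeptide measured by phosphocellulose filter binding and scintillation counting. PLK1 at 2 nM was preincubated with compound (typically from 10 μM, 2-fold dilutions) for 10 min, then run 240 min at 25° C with 350 μM [γ-33P]ATP and 450 μM peptide substrate in HEPES pH 7.5 buffer.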

Chain of PLK1 (P53350 whole entry): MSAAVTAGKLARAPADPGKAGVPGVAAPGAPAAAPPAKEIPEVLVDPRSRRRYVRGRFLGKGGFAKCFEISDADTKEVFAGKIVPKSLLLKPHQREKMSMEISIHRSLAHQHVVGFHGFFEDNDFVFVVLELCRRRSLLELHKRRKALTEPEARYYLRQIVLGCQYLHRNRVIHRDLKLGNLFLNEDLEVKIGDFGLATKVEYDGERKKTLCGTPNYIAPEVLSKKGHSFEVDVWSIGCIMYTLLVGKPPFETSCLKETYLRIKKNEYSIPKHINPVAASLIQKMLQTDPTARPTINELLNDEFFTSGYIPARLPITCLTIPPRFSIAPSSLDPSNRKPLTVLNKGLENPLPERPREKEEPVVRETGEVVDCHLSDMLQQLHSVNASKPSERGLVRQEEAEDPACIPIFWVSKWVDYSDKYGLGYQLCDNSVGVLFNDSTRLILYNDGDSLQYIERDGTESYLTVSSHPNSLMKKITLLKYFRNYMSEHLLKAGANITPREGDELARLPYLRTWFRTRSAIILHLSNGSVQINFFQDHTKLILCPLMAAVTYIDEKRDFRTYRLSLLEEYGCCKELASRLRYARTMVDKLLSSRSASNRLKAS

**Q.** For `C[C@@H](O)C(=O)N1CCC([C@@H](C)Nc2ncc(C#N)c(-c3c[nH]c4ncc(C(F)(F)F)cc34)n2)CC1` [Compound I-207, 2-((R)-1-(1-((R)-2-hydroxypropanoyl)piperidin-4-yl)ethylamino)-4-(5-(trifluoromethyl)-1H-pyrrolo[2,3-b]pyridin-3-yl)pyrimidine-5-carbonitrile], which Ki is on record?
**A.** The Ki was less than 3 nM.

**Q.** How did the Ki turn out when `CC(=O)N[C@H]1CC[C@H]([C@@H](C)Nc2ncc(C#N)c(-c3c[nH]c4ncc(C(F)(F)F)cc34)n2)CC1` [Compound I-208, N-((1R,4r)-4-((1R)-1-(5-cyano-4-(5-(trifluoromethyl)-1H-pyrrolo[2,3-b]pyridin-3-yl)pyrimidin-2-ylamino)ethyl)cyclohexyl)acetamide] was run?
**A.** Its Ki is less than 3 nM.

**Q.** Which Ki does the source give for `CC(=O)N[C@H]1CC[C@@H]([C@@H](C)Nc2ncc(C#N)c(-c3c[nH]c4ncc(C(F)(F)F)cc34)n2)CC1` [Compound I-209, N-((1S,4s)-4-((1R)-1-(5-cyano-4-(5-(trifluoromethyl)-1H-pyrrolo[2,3-b]pyridin-3-yl)pyrimidin-2-ylamino)ethyl)cyclohexyl)acetamide] here?
**A.** The Ki was 3 to 40 nM.

**Q.** For `C[C@@H](Nc1ncc(C#N)c(-c2c[nH]c3ncc(C(F)(F)F)cc23)n1)C1CCN(C(=O)CN)CC1` [Compound I-210, 2-((R)-1-(1-(2-aminoacetyl)piperidin-4-yl)ethylamino)-4-(5-(trifluoromethyl)-1H-pyrrolo[2,3-b]pyridin-3-yl)pyrimidine-5-carbonitrile], which Ki is on record?
**A.** The Ki was less than 3 nM.

**Q.** `C[C@@H](Nc1ncc(C#N)c(-c2c[nH]c3ncc(C(F)(F)F)cc23)n1)[C@H]1CC[C@H](NC(=O)CO)CC1` [Compound I-211, N-((1R,4r)-4-((1R)-1-(5-cyano-4-(5-(trifluoromethyl)-1H-pyrrolo[2,3-b]pyridin-3-yl)pyrimidin-2-ylamino)ethyl)cyclohexyl)-2-hydroxyacetamide] was tested. Which Ki did it give?
**A.** Its Ki is less than 3 nM.

**Q.** Which Ki does the source give for `C[C@@H](Nc1ncc(C#N)c(-c2c[nH]c3ncc(C(F)(F)F)cc23)n1)[C@H]1CC[C@@H](NC(=O)CO)CC1` [Compound I-212, N-((1S,4s)-4-((1R)-1-(5-cyano-4-(5-(trifluoromethyl)-1H-pyrrolo[2,3-b]pyridin-3-yl)pyrimidin-2-ylamino)ethyl)cyclohexyl)-2-hydroxyacetamide] here?
**A.** Its Ki is less than 3 nM.

**Q.** How did the Ki turn out when `CC(C)S(=O)(=O)N1CCC([C@@H](C)Nc2ncc(C#N)c(-c3c[nH]c4ncc(C(F)(F)F)cc34)n2)CC1` [Compound I-213, 2-((R)-1-(1-(isopropylsulfonyl)piperidin-4-yl)ethylamino)-4-(5-(trifluoromethyl)-1H-pyrrolo[2,3-b]pyridin-3-yl)pyrimidine-5-carbonitrile] was run?
**A.** The Ki was less than 3 nM.

**Q.** `C=C1CC(C(C)Nc2ncc(C#N)c(-c3c[nH]c4ncc(C(F)(F)F)cc34)n2)C1` (stereo not drawn) [Compound I-214, 2-(1-(3-methylenecyclobutyl)ethylamino)-4-(5-(trifluoromethyl)-1H-pyrrolo[2,3-b]pyridin-3-yl)pyrimidine-5-carbonitrile] was tested. Which Ki did it give?
**A.** Its Ki is 3 to 40 nM.

**Q.** For `C[C@@H](Nc1ncc(C#N)c(-c2c[nH]c3ncc(C(F)(F)F)cc23)n1)C1CCN(CCO)CC1` [Compound I-215, 2-((R)-1-(1-(2-hydroxyethyl)piperidin-4-yl)ethylamino)-4-(5-(trifluoromethyl)-1H-pyrrolo[2,3-b]pyridin-3-yl)pyrimidine-5-carbonitrile], which Ki is on record?
**A.** The Ki was less than 3 nM.

**Q.** How did the Ki turn out when `C[C@@H](Nc1ncc(C#N)c(-c2c[nH]c3ncc(C(F)(F)F)cc23)n1)C1CCN(C(=O)CCO)CC1` [Compound I-216, 2-((R)-1-(1-(3-hydroxypropanoyl)piperidin-4-yl)ethylamino)-4-(5-(trifluoromethyl)-1H-pyrrolo[2,3-b]pyridin-3-yl)pyrimidine-5-carbonitrile] was run?
**A.** The Ki was less than 3 nM.

**Q.** How did the Ki turn out when `CC[C@H](O)C(=O)N1CCC([C@@H](C)Nc2ncc(C#N)c(-c3c[nH]c4ncc(C(F)(F)F)cc34)n2)CC1` [Compound I-217, 2-((R)-1-(1-((S)-2-hydroxybutanoyl)piperidin-4-yl)ethylamino)-4-(5-(trifluoromethyl)-1H-pyrrolo[2,3-b]pyridin-3-yl)pyrimidine-5-carbonitrile] was run?
**A.** The Ki was less than 3 nM.

**Q.** How did the Ki turn out when `C[C@@H](Nc1ncc(C#N)c(-c2c[nH]c3ncc(C(F)(F)F)cc23)n1)C1CCN(CC(N)=O)CC1` [Compound I-218, 2-(4-((1R)-1-(5-cyano-4-(5-(trifluoromethyl)-1H-pyrrolo[2,3-b]pyridin-3-yl)pyrimidin-2-ylamino)ethyl)piperidin-1-yl)acetamide] was run?
**A.** The Ki was less than 3 nM.

**Q.** For `CC[C@@H](O)C(=O)N1CCC([C@@H](C)Nc2ncc(C#N)c(-c3c[nH]c4ncc(C(F)(F)F)cc34)n2)CC1` [Compound I-219, 2-((R)-1-(1-((R)-2-hydroxybutanoyl)piperidin-4-yl)ethylamino)-4-(5-(trifluoromethyl)-1H-pyrrolo[2,3-b]pyridin-3-yl)pyrimidine-5-carbonitrile], which Ki is on record?
**A.** Its Ki is less than 3 nM.

**Q.** How did the Ki turn out when `C[C@@H](Nc1ncc(C#N)c(-c2c[nH]c3ncc(C(F)(F)F)cc23)n1)C1CCN(C(=O)C2(O)CC2)CC1` [Compound I-220, 2-((R)-1-(1-(1-hydroxycyclopropanecarbonyl)piperidin-4-yl)ethylamino)-4-(5-(trifluoromethyl)-1H-pyrrolo[2,3-b]pyridin-3-yl)pyrimidine-5-carbonitrile] was run?
**A.** Its Ki is less than 3 nM.

**Q.** With `CC(Nc1ncc(C#N)c(-c2c[nH]c3ncc(C(F)(F)F)cc23)n1)C1CN(C(=O)C(C)(C)O)C1` (stereo not drawn) [Compound I-221, 2-(1-(1-(2-hydroxy-2-methylpropanoyl)azetidin-3-yl)ethylamino)-4-(5-(trifluoromethyl)-1H-pyrrolo[2,3-b]pyridin-3-yl)pyrimidine-5-carbonitrile] as the compound, how does the Ki read?
**A.** The Ki was 3 to 40 nM.

**Q.** With `CC(Nc1ncc(C#N)c(-c2c[nH]c3ncc(C(F)(F)F)cc23)n1)C1CN(C(=O)[C@@H](C)O)C1` (stereo partly drawn) [Compound I-222, 2-(1-(1-((R)-2-hydroxypropanoyl)azetidin-3-yl)ethylamino)-4-(5-(trifluoromethyl)-1H-pyrrolo[2,3-b]pyridin-3-yl)pyrimidine-5-carbonitrile] as the compound, how does the Ki read?
**A.** The Ki was less than 3 nM.

**Q.** With `C[C@@H](Nc1ncc(C#N)c(-c2c[nH]c3ncc(C(F)(F)F)cc23)n1)c1ccc(NCCN2CCCC2)nc1` [Compound I-223, 2-((R)-1-(6-(2-(pyrrolidin-1-yl)ethylamino)pyridin-3-yl)ethylamino)-4-(5-(trifluoromethyl)-1H-pyrrolo[2,3-b]pyridin-3-yl)pyrimidine-5-carbonitrile] as the compound, how does the Ki read?
**A.** Its Ki is 3 to 40 nM.

**Q.** How did the Ki turn out when `C[C@@H](Nc1ncc(C#N)c(-c2c[nH]c3ncc(C(F)(F)F)cc23)n1)C1CCN(C(=O)CCN)CC1` [Compound I-224, 2-((R)-1-(1-(3-aminopropanoyl)piperidin-4-yl)ethylamino)-4-(5-(trifluoromethyl)-1H-pyrrolo[2,3-b]pyridin-3-yl)pyrimidine-5-carbonitrile] was run?
**A.** Its Ki is less than 3 nM.

**Q.** How did the Ki turn out when `C[C@@H](N)C(=O)N1CCC([C@@H](C)Nc2ncc(C#N)c(-c3c[nH]c4ncc(C(F)(F)F)cc34)n2)CC1` [Compound I-225, 2-((R)-1-(1-((R)-2-aminopropanoyl)piperidin-4-yl)ethylamino)-4-(5-(trifluoromethyl)-1H-pyrrolo[2,3-b]pyridin-3-yl)pyrimidine-5-carbonitrile] was run?
**A.** Its Ki is less than 3 nM.

**Q.** `CC[C@@H](N)C(=O)N1CCC([C@@H](C)Nc2ncc(C#N)c(-c3c[nH]c4ncc(C(F)(F)F)cc34)n2)CC1` [Compound I-226, 2-((R)-1-(1-((R)-2-aminobutanoyl)piperidin-4-yl)ethylamino)-4-(5-(trifluoromethyl)-1H-pyrrolo[2,3-b]pyridin-3-yl)pyrimidine-5-carbonitrile] was tested. Which Ki did it give?
**A.** Its Ki is less than 3 nM.

**Q.** `C[C@@H](Nc1ncc(C#N)c(-c2c[nH]c3ncc(C(F)(F)F)cc23)n1)C1CCN(C(=O)C2CNC2)CC1` [Compound I-227, 2-((R)-1-(1-(azetidine-3-carbonyl)piperidin-4-yl)ethylamino)-4-(5-(trifluoromethyl)-1H-pyrrolo[2,3-b]pyridin-3-yl)pyrimidine-5-carbonitrile] was tested. Which Ki did it give?
**A.** The Ki was less than 3 nM.

**Q.** Which Ki does the source give for `C[C@H](O)C(=O)N1CCC([C@@H](C)Nc2ncc(C#N)c(-c3c[nH]c4ncc(C(F)(F)F)cc34)n2)CC1` [Compound I-228, 2-((R)-1-(1-((S)-2-hydroxypropanoyl)piperidin-4-yl)ethylamino)-4-(5-(trifluoromethyl)-1H-pyrrolo[2,3-b]pyridin-3-yl)pyrimidine-5-carbonitrile] here?
**A.** The Ki was less than 3 nM.

**Q.** Which Ki does the source give for `CC(C)[C@@H](N)C(=O)N1CCC([C@@H](C)Nc2ncc(C#N)c(-c3c[nH]c4ncc(C(F)(F)F)cc34)n2)CC1` [Compound I-229, 2-((R)-1-(1-((R)-2-amino-3-methylbutanoyl)piperidin-4-yl)ethylamino)-4-(5-(trifluoromethyl)-1H-pyrrolo[2,3-b]pyridin-3-yl)pyrimidine-5-carbonitrile] here?
**A.** Its Ki is less than 3 nM.

**Q.** For `C[C@@H](Nc1ncc(C#N)c(-c2c[nH]c3ncc(C(F)(F)F)cc23)n1)C1CCN(C(=O)[C@H](O)C(F)(F)F)CC1` [Compound I-230, 2-((R)-1-(1-((S)-3,3,3-trifluoro-2-hydroxypropanoyl)piperidin-4-yl)ethylamino)-4-(5-(trifluoromethyl)-1H-pyrrolo[2,3-b]pyridin-3-yl)pyrimidine-5-carbonitrile], which Ki is on record?
**A.** Its Ki is less than 3 nM.

**Q.** `CC(=O)C(=O)N1CCC([C@@H](C)Nc2ncc(C#N)c(-c3c[nH]c4ncc(C(F)(F)F)cc34)n2)CC1` [Compound I-231, 2-((R)-1-(1-(2-oxopropanoyl)piperidin-4-yl)ethylamino)-4-(5-(trifluoromethyl)-1H-pyrrolo[2,3-b]pyridin-3-yl)pyrimidine-5-carbonitrile] was tested. Which Ki did it give?
**A.** The Ki was less than 3 nM.

**Q.** `C[C@@H](Nc1ncc(C#N)c(-c2c[nH]c3ncc(C(F)(F)F)cc23)n1)C1CCN(C(=O)CC#N)CC1` [Compound I-233, 2-((R)-1-(1-(2-cyanoacetyl)piperidin-4-yl)ethylamino)-4-(5-(trifluoromethyl)-1H-pyrrolo[2,3-b]pyridin-3-yl)pyrimidine-5-carbonitrile] was tested. Which Ki did it give?
**A.** The Ki was less than 3 nM.

**Q.** For `CC(Nc1ncc(C#N)c(-c2c[nH]c3ncc(C(F)(F)F)cc23)n1)C1(F)CCN(C(=O)CN)CC1` (stereo not drawn) [Compound I-234, 2-(1-(1-(2-aminoacetyl)-4-fluoropiperidin-4-yl)ethylamino)-4-(5-(trifluoromethyl)-1H-pyrrolo[2,3-b]pyridin-3-yl)pyrimidine-5-carbonitrile], which Ki is on record?
**A.** Its Ki is less than 3 nM.
